# Laboratory results published in patent US20220267736A1, “PLURIPOTENT STEM CELL AGGREGATION SUPPRESSOR” (KANEKA CORPORATION, priority 2017, published 2022).
# System: human iPS cells (TkDN4-M)
# Assay: Cell aggregate size distribution (widest portion) from micrographs during suspension culture
# Format: cell-based
# Conditions: cytochalasin D 20 nM, jasplakinolide 20 nM, demecolcine 10 ng/mL; for percentage of cell aggregates whose size (diameter) was 40 μm or more and 300 μm or less, relative to the total cell aggregate count / percentage of cell aggregates whose size (diameter) was 60 μm or more and 300 μm or less / percentage of cell aggregates whose size (diameter) was 80 μm or more and 300 μm or less / percentage of cell aggregates whose size (diameter) was 100 μm or more and 300 μm or less / Number of cell aggregates by size / Percentage of cell aggregates by size: Day 1, DMSO 1%; for average ± standard deviation of cell aggregate sizes (diameters): Day 1 of culture, DMSO 1% (v/v), Y-27632 10 μM
# Protocol: Cell suspensions were prepared in the same manner as in Example 2, and separately, the concentrations of the suppressors of cell aggregation were adjusted so that the final concentration of demecolcine (same as above) was 10 mg/mL (26.9 mM), the final concentration of cytochalasin D (same as above) was 0.51 mg/mL (1 mM), the concentration of DMSO (the same as above) was the stock concentration, or the final concentration of jasplakinolide (Cayman, 11705) was 0.14 mg/mL (0.2 mM). Then the concentration-adjusted cell aggregation suppressors were added to the cell suspensions so that the final concentration of demecolcine was 10 ng/mL, the final concentration of cytochalasin D was 20 nM, the final concentration of DMSO was 1% (v/v), or the final concentration of jasplakinolide was 20 nM, and the cells were seeded at a rate of 4 mL/well in a 6-well plate for suspension culture (Sumitomo Bakelite Co., Ltd., Japan). The cell-seeded plate was subjected to a swirling culture on a rotary shaker (OPTIMA, Inc., Japan) at a speed of 90 rpm along the horizontal plane to draw a circle with a swirling width (diameter) of 25 mm and cells were subjected to suspension culture under the environment of 5% CO2 and 37° C. After the next day of culture (Day 1 of culture), the culture medium was exchanged daily with a fresh culture medium (Essential 8™ culture medium containing BSA (Wako Pure Chemical Industries, Ltd.) at a final concentration of 5 mg/mL), and the culture was continued until 5 days after the start of culture. Images were obtained by phase contrast microscopy every day during culture. While 182 to 252 cell aggregates in images obtained on Day 1 of culture being observed and compared using a micrograph scale, the width (referred to as “φ”) of the widest portion of each cell aggregate was measured, distribution thereof was examined, and average±standard deviation was calculated. The concentration of glucose contained in the culture supernatant collected at the time of culture medium exchange was measured with biosensor BF-5iD (Prince Measuring Equipment Co., Ltd.) to calculate glucose consumption.
SMILES,"percentage of cell aggregates whose size (diameter) was 40 μm or more and 300 μm or less, relative to the total cell aggregate count [%]",percentage of cell aggregates whose size (diameter) was 60 μm or more and 300 μm or less [%],percentage of cell aggregates whose size (diameter) was 80 μm or more and 300 μm or less [%],percentage of cell aggregates whose size (diameter) was 100 μm or more and 300 μm or less [%],Number of cell aggregates by size (size range 40− μm),Percentage of cell aggregates by size (size range 40− μm) [%],Number of cell aggregates by size (size range 60− μm),Percentage of cell aggregates by size (size range 60− μm) [%],Number of cell aggregates by size (size range 80− μm),Percentage of cell aggregates by size (size range 80− μm) [%],Number of cell aggregates by size (size range 100− μm),Percentage of cell aggregates by size (size range 100− μm) [%],Number of cell aggregates by size (size range 120− μm),Percentage of cell aggregates by size (size range 120− μm) [%],Number of cell aggregates by size (size range 140− μm),Percentage of cell aggregates by size (size range 140− μm) [%],Number of cell aggregates by size (size range 160− μm),Percentage of cell aggregates by size (size range 160− μm) [%],Number of cell aggregates by size (size range 180− μm),Percentage of cell aggregates by size (size range 180− μm) [%],other results
"C[S+](C)[O-] [DMSO, dimethylsulfoxide]",100,100,98.5,96.0,0,0.0,3,1.5,5,2.5,2,1.0,24,12.1,56,28.1,56,28.1,33,16.6,Number of cell aggregates by size (size range 200− μm): 12; Percentage of cell aggregates by size (size range 200− μm): 6.0%; Number of cell aggregates by size (size range 220− μm): 5; Percentage of cell aggregates by size (size range 220− μm): 2.5%; Number of cell aggregates by size (size range 240− μm): 1; Percentage of cell aggregates by size (size range 240− μm): 0.5%; Number of cell aggregates by size (size range 260− μm): 1; Percentage of cell aggregates by size (size range 260− μm): 0.5%; Number of cell aggregates by size (size range 280− μm): 1; Percentage of cell aggregates by size (size range 280− μm): 0.5%; Number of cell aggregates by size (size range 300− μm): 0; Percentage of cell aggregates by size (size range 300− μm): 0.0%; average ± standard deviation of cell aggregate sizes (diameters): 164.8±31.8 μm
C=C1[C@@H](C)[C@H]2[C@H](Cc3ccccc3)NC(=O)[C@]23[C@H](OC(C)=O)/C=C/[C@@](C)(O)C(=O)[C@@H](C)C/C=C/[C@H]3[C@@H]1O [cytochalasin D],100,96,88.1,80.6,10,4.0,20,7.9,19,7.5,26,10.3,60,23.8,66,26.2,40,15.9,10,4.0,Number of cell aggregates by size (size range 200− μm): 0; Percentage of cell aggregates by size (size range 200− μm): 0.0%; Number of cell aggregates by size (size range 220− μm): 1; Percentage of cell aggregates by size (size range 220− μm): 0.4%; Number of cell aggregates by size (size range 240− μm): 0; Percentage of cell aggregates by size (size range 240− μm): 0.0%; Number of cell aggregates by size (size range 260− μm): 0; Percentage of cell aggregates by size (size range 260− μm): 0.0%; Number of cell aggregates by size (size range 280− μm): 0; Percentage of cell aggregates by size (size range 280− μm): 0.0%; Number of cell aggregates by size (size range 300− μm): 0; Percentage of cell aggregates by size (size range 300− μm): 0.0%; average ± standard deviation of cell aggregate sizes (diameters): 132.5±34.8 μm
CN[C@H]1CCc2cc(OC)c(OC)c(OC)c2-c2ccc(OC)c(=O)cc21 [demecolcine],100,97.3,93.5,92.4,5,2.7,7,3.8,2,1.1,0,0.0,2,1.1,16,8.8,37,20.3,45,24.7,Number of cell aggregates by size (size range 200− μm): 38; Percentage of cell aggregates by size (size range 200− μm): 20.9%; Number of cell aggregates by size (size range 220− μm): 19; Percentage of cell aggregates by size (size range 220− μm): 10.4%; Number of cell aggregates by size (size range 240− μm): 8; Percentage of cell aggregates by size (size range 240− μm): 4.4%; Number of cell aggregates by size (size range 260− μm): 2; Percentage of cell aggregates by size (size range 260− μm): 1.1%; Number of cell aggregates by size (size range 280− μm): 0; Percentage of cell aggregates by size (size range 280− μm): 0.0%; Number of cell aggregates by size (size range 300− μm): 1; Percentage of cell aggregates by size (size range 300− μm): 0.5%; average ± standard deviation of cell aggregate sizes (diameters): 184.9±44.9 μm
C/C1=C\[C@H](C)C[C@H](C)OC(=O)C[C@H](c2ccc(O)cc2)NC(=O)[C@@H](Cc2c(Br)[nH]c3ccccc23)N(C)C(=O)[C@H](C)NC(=O)[C@@H](C)C1 [jasplakinolide],100,98.1,96.2,95.7,4,1.9,4,1.9,1,0.5,8,3.9,23,11.2,52,25.2,66,32.0,30,14.6,Number of cell aggregates by size (size range 200− μm): 9; Percentage of cell aggregates by size (size range 200− μm): 4.4%; Number of cell aggregates by size (size range 220− μm): 4; Percentage of cell aggregates by size (size range 220− μm): 1.9%; Number of cell aggregates by size (size range 240− μm): 1; Percentage of cell aggregates by size (size range 240− μm): 0.5%; Number of cell aggregates by size (size range 260− μm): 1; Percentage of cell aggregates by size (size range 260− μm): 0.5%; Number of cell aggregates by size (size range 280− μm): 2; Percentage of cell aggregates by size (size range 280− μm): 1.0%; Number of cell aggregates by size (size range 300− μm): 1; Percentage of cell aggregates by size (size range 300− μm): 0.5%; average ± standard deviation of cell aggregate sizes (diameters): 162.7±37.2 μm
